Here are results for one compound from ChEMBL document CHEMBL4406791, “Allosteric Modalities for Membrane-Bound Receptors: Insights from Drug Hunting for Brain Diseases” (J Med Chem, 2019).

The test concerns the target Metabotropic glutamate receptor 5 (Homo sapiens) (UniProt P41594). Description: Binding affinity to mGluR5 (unknown origin) assessed as association rate constant.

Chain of Metabotropic glutamate receptor 5 (Homo sapiens) (P41594 21-1212 limits assumed): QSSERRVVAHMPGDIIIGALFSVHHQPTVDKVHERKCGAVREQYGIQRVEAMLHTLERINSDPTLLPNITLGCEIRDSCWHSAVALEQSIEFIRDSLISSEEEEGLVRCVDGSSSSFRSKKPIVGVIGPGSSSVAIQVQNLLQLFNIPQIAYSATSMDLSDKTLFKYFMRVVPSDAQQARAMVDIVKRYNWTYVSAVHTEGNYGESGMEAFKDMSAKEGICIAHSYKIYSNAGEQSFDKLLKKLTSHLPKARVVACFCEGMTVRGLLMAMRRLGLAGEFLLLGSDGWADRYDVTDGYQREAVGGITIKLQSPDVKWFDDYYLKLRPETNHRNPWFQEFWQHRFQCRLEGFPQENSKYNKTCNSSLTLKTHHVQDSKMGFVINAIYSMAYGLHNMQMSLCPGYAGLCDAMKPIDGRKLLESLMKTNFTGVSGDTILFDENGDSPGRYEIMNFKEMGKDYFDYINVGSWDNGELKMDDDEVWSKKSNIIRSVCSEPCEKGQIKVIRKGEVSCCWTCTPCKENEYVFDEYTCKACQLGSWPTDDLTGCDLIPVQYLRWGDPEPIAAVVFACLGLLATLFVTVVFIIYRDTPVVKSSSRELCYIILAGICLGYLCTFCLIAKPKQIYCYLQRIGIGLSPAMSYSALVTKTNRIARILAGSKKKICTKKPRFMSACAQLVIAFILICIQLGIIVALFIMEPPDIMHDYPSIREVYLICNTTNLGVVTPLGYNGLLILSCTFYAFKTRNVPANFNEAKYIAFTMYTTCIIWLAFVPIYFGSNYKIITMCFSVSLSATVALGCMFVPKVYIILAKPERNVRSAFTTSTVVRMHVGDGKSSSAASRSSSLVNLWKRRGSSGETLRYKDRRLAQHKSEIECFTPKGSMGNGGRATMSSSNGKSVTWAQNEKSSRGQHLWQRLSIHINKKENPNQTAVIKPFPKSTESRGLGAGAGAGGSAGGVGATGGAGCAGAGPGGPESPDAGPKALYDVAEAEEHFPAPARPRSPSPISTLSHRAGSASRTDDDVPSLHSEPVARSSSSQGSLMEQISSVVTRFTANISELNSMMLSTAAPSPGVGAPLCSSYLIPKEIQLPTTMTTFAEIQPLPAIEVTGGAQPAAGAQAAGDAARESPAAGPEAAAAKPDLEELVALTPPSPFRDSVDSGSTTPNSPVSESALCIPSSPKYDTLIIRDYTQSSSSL

For `O=C(Nc1ccc(-c2ccn3c(CC4CC4)nnc3c2C(F)(F)F)cc1)c1ccc(S(=O)(=O)F)cc1`, the K was 3.2 ×10³ /M/s.
